From the NIST ThermoML archive (doi:10.1021/je2013704)

Assay: mn = molality of the nth substance listed, in mol/kg
Conditions: Liquid, Vibrating tube method

[Cl-].[Na+] [sodium chloride] + O
mass density [kg/m3]
Conditions	900 kPa	9900 kPa	19900 kPa	29900 kPa	39900 kPa	49900 kPa	59900 kPa	68400 kPa
372.99 K, m1 = 1.06	–	–	–	–	–	–	–	1026.09
372.99 K, m1 = 3.16	–	–	–	–	–	–	–	1093.16
372.99 K, m1 = 6	–	–	–	–	–	–	–	1171.6
397.97 K, m1 = 1.06	980.42	984.6	989.13	993.51	997.76	1002.02	1006.01	1009.32
397.97 K, m1 = 3.16	1051.16	1054.84	1058.92	1062.79	1066.63	1070.44	1074.07	1077.08
397.97 K, m1 = 6	1132.48	1135.74	1139.35	1142.8	1146.27	1149.66	1152.86	1155.61
422.94 K, m1 = 1.06	959.71	964.31	969.29	974.04	978.6	983.2	987.46	991.15
422.94 K, m1 = 3.16	1031.93	1036.08	–	1044.51	1048.68	1052.68	1056.58	1059.82
422.94 K, m1 = 6	1114.2	1117.84	1121.56	1125.33	1128.98	1132.56	1136.03	1138.92
447.94 K, m1 = 1.06	936.49	941.64	947.14	952.41	957.55	962.42	967.35	971.22
447.94 K, m1 = 3.16	1010.87	1015.28	–	1024.61	1029.15	–	1037.71	1041.14
447.94 K, m1 = 6	1094.62	1098.38	1102.62	1106.53	1110.46	1114.27	1118.04	1121.1
472.96 K, m1 = 1.06	–	916.86	923.12	929	934.76	940.22	945.52	949.91
472.96 K, m1 = 3.16	–	993.19	998.47	1003.47	1008.45	1013.17	1017.78	1021.53
472.96 K, m1 = 6	–	1078.2	1082.67	1087.01	1091.28	1095.39	1099.39	1102.68
